Experimental data from BindingDB's records for PubMed 39642691 (University of California San Francisco).

Target: T1, Pendrin (Homo sapiens, UniProt O43511)
T1 sequence (O43511 whole entry): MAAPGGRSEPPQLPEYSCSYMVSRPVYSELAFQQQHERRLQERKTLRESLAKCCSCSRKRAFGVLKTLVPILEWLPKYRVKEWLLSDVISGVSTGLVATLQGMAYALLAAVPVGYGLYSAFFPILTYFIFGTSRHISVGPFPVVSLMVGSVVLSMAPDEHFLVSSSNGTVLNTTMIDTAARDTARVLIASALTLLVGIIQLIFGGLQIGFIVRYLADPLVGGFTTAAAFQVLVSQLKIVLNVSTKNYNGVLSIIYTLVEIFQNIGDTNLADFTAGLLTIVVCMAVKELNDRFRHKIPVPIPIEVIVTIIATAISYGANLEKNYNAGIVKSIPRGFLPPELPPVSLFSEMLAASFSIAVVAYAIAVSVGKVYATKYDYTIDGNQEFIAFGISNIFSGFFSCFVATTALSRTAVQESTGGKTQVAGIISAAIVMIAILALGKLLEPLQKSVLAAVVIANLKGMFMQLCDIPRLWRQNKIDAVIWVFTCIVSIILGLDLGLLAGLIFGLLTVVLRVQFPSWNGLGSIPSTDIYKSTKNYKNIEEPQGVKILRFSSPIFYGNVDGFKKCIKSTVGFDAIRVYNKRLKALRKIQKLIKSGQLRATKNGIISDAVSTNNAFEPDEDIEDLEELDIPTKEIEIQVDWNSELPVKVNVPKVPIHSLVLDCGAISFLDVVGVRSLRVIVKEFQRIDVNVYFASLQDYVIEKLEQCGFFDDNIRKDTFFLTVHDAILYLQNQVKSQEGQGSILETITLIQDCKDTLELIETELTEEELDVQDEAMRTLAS
Assay: Inhibition of Pendrin (unknown origin) transfected in rat FRT cells assessed as reduction in Cl-/I- ions exchange by YFP fluorescence quenching assay

- IC50: 650 nM
Compound: Cc1oc2ccc(OCc3ccccc3Cl)cc2c1C(=O)O
